Reference: patent US10588317B2, “Isoxazoline-substituted benzamides and analogues as insecticides” (priority 2015, dated 2020)
Like-named read-outs stand apart in the source and are kept apart here.

What was measured:
Type in all cases: in vivo
Diabrotica balteata = Diabrotica balteata (corn root worm), sprayed maize sprouts; conditions: 96 h, read-out: effect in at least one of the two categories (mortality or growth inhibition); for percent effect (mortality or growth inhibition) at 200 ppm: application rate 200 ppm, L2 larvae, 4 days after infestation
How it was run: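 Read-out at 4 days post-infestation: mortality and growth inhibition relative to untreated samples. Test solutions (200 ppm, from DMSO stocks) were sprayed onto agar-held maize sprouts, which after drying received 6–10 L2 larvae per well.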

Tetranychus urticae = Tetranychus urticae (two-spotted spider mite): feeding/contact activity; conditions: 192 h
Procedure: Bean leaf discs on agar in 24-well microtiter plates were sprayed with aqueous test solutions prepared from 10'000 ppm DMSO stock solutions. After drying the leaf discs were infested with a mite population of mixed ages. The samples were assessed for mortality on mixed population (mobile stages) 8 days after infestation.

Euschistus heros = Euschistus heros (neotropical brown stink bug), sprayed soybean leaves; conditions: 120 h, read-out: effect in at least one of the two categories (mortality or growth inhibition); for percent effect (mortality or growth inhibition) at 200 ppm: application rate 200 ppm, N2 nymphs, 5 days after infestation
How it was run: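 Scored 5 days post-infestation versus untreated controls, for both mortality and growth inhibition: N2 nymphs placed on agar-mounted soybean leaves previously sprayed at 200 ppm with aqueous test solutions from DMSO stocks and left to dry.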

Plutella xylostella = Plutella xylostella (diamond back moth), artificial diet; conditions: 120 h, read-out: effect in at least one of the two categories (mortality or growth inhibition); for percent effect (mortality or growth inhibition) at 200 ppm: application rate 200 ppm, L2 larvae, 5 days after infestation
How it was run: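 L2 larvae (10-15 per well) fed on compound-treated, dried artificial diet; test solutions diluted in water from 10'000 ppm DMSO stocks. Readout 5 days post-infestation as mortality or growth inhibition versus untreated diet, with at least 80% effect at 200 ppm as threshold.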

Myzus persicae = Myzus persicae (green peach aphid): feeding/contact activity; conditions: 144 h
Procedure: Sunflower leaf discs were placed onto agar in a 24-well microtiter plate and sprayed with aqueous test solutions prepared from 10'000 ppm DMSO stock solutions. After drying, the leaf discs were infested with an aphid population of mixed ages. The samples were assessed for mortality 6 days after infestation.

Spodoptera littoralis = Spodoptera littoralis (Egyptian cotton leaf worm), sprayed cotton leaf discs; conditions: foliar, 72 h, read-out: control (mortality, anti-feeding effect, growth inhibition)
How it was run: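 Five first-instar larvae placed on dried cotton leaf discs (on agar) previously sprayed with aqueous dilutions of 10'000 ppm DMSO stocks. Scored at 3 days against untreated discs for mortality, feeding inhibition and growth inhibition; any category above untreated counts as control.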

Thrips tabaci = Thrips tabaci (onion thrips): feeding/contact activity; conditions: 144 h
Procedure: Sunflower leaf discs were placed on agar in 24-well microtiter plates and sprayed with aqueous test solutions prepared from 10'000 ppm DMSO stock solutions. After drying the leaf discs were infested with a Thrips population of mixed ages. The samples were assessed for mortality 6 days after infestation.

[1] = application rate 200 ppm, mixed population (mobile stages), 8 days after infestation, read-out: mortality
[2] = application rate 200 ppm, aphid population of mixed ages, 6 days after infestation, read-out: mortality
[3] = application rate 200 ppm, L1 larvae, 3 days after infestation
[4] = application rate 200 ppm, Thrips population of mixed ages, 6 days after infestation, read-out: mortality

Cc1cc(C2=NO[C@@](c3cc(Cl)c(F)c(Cl)c3)(C(F)(F)F)C2)ccc1C(=O)NC1CON(S(=O)(=O)C(C)C)C1 (stereo partly drawn) [Compound A17]
≥ 80%: percent effect (mortality or growth inhibition) at 200 ppm (Diabrotica balteata) | mortality at 200 ppm (Tetranychus urticae; [1]) | percent effect (mortality or growth inhibition) at 200 ppm (Euschistus heros) | percent effect (mortality or growth inhibition) at 200 ppm (Plutella xylostella) | mortality at 200 ppm (Myzus persicae; [2]) | mortality at 200 ppm (Spodoptera littoralis; [3]) | mortality at 200 ppm (Thrips tabaci; [4])

Cc1cc(C2=NO[C@@](c3cc(Cl)c(F)c(Cl)c3)(C(F)(F)F)C2)ccc1C(=O)N[C@@H]1CON(S(=O)(=O)N2CCOCC2)C1 [Compound A188, 4-[(5S)-5-(3,5-dichloro-4-fluorophenyl)-5-(trifluoromethyl)-4H-1,2-oxazol-3-yl]-2-methyl-N-[(4S)-2-morpholin-4-ylsulfonyl-1,2-oxazolidin-4-yl]benzamide]
≥ 80%: percent effect (mortality or growth inhibition) at 200 ppm (Diabrotica balteata) | mortality at 200 ppm (Tetranychus urticae; [1]) | percent effect (mortality or growth inhibition) at 200 ppm (Euschistus heros) | percent effect (mortality or growth inhibition) at 200 ppm (Plutella xylostella) | mortality at 200 ppm (Myzus persicae; [2]) | mortality at 200 ppm (Spodoptera littoralis; [3]) | mortality at 200 ppm (Thrips tabaci; [4])

Cc1cc(C2=NO[C@@](c3cc(Cl)c(F)c(Cl)c3)(C(F)(F)F)C2)ccc1C(=O)N[C@H]1CON(S(=O)(=O)NCC(F)(F)F)C1 [Compound A149, 4-[(5S)-5-(3,5-dichloro-4-fluoro-phenyl)-5-(trifluoromethyl)-4H-isoxazol-3-yl]-2-methyl-N-[(4R)-2-(2,2,2-trifluoroethylsulfamoyl)isoxazolidin-4-yl]benzamide]
≥ 80%: percent effect (mortality or growth inhibition) at 200 ppm (Diabrotica balteata) | mortality at 200 ppm (Tetranychus urticae; [1]) | percent effect (mortality or growth inhibition) at 200 ppm (Euschistus heros) | percent effect (mortality or growth inhibition) at 200 ppm (Plutella xylostella) | mortality at 200 ppm (Myzus persicae; [2]) | mortality at 200 ppm (Spodoptera littoralis; [3]) | mortality at 200 ppm (Thrips tabaci; [4])

C#CCN(C(=O)OC(C)(C)C)S(=O)(=O)N1C[C@@H](NC(=O)c2ccc(C3=NO[C@@](c4cc(Cl)cc(Cl)c4)(C(F)(F)F)C3)cc2Cl)CO1 [Compound A152]
≥ 80%: percent effect (mortality or growth inhibition) at 200 ppm (Diabrotica balteata) | mortality at 200 ppm (Tetranychus urticae; [1]) | percent effect (mortality or growth inhibition) at 200 ppm (Euschistus heros) | percent effect (mortality or growth inhibition) at 200 ppm (Plutella xylostella) | mortality at 200 ppm (Myzus persicae; [2]) | mortality at 200 ppm (Spodoptera littoralis; [3]) | mortality at 200 ppm (Thrips tabaci; [4])

CCCCN(C)S(=O)(=O)N1CC(NC(=O)c2ccc(C3=NO[C@@](c4cc(Cl)c(Cl)c(Cl)c4)(C(F)(F)F)C3)cc2C)CO1 (stereo partly drawn) [Compound A85, N-[2-[butyl(methyl)sulfamoyl]isoxazolidin-4-yl]-2-methyl-4-[(5S)-5-(3,4,5-trichlorophenyl)-5-(trifluoromethyl)-4H-isoxazol-3-yl]benzamide]
≥ 80%: percent effect (mortality or growth inhibition) at 200 ppm (Diabrotica balteata) | mortality at 200 ppm (Tetranychus urticae; [1]) | percent effect (mortality or growth inhibition) at 200 ppm (Euschistus heros) | percent effect (mortality or growth inhibition) at 200 ppm (Plutella xylostella) | mortality at 200 ppm (Myzus persicae; [2]) | mortality at 200 ppm (Spodoptera littoralis; [3]) | mortality at 200 ppm (Thrips tabaci; [4])

Cc1cc(C2=NO[C@@](c3cc(Cl)cc(C(F)(F)F)c3)(C(F)(F)F)C2)ccc1C(=O)N[C@@H]1CON(S(=O)(=O)CC(F)(F)F)C1 [Compound A214]
≥ 80%: percent effect (mortality or growth inhibition) at 200 ppm (Diabrotica balteata) | mortality at 200 ppm (Tetranychus urticae; [1]) | percent effect (mortality or growth inhibition) at 200 ppm (Euschistus heros) | percent effect (mortality or growth inhibition) at 200 ppm (Plutella xylostella) | mortality at 200 ppm (Myzus persicae; [2]) | mortality at 200 ppm (Spodoptera littoralis; [3]) | mortality at 200 ppm (Thrips tabaci; [4])

Cc1cc(C2=NO[C@](c3cc(Cl)cc(C(F)(F)F)c3)(C(F)(F)F)C2)ccc1C(=O)N[C@H]1CON(S(=O)(=O)F)C1 [Compound A219]
≥ 80%: percent control (mortality or growth inhibition) at 200 ppm (Diabrotica balteata) | mortality at 200 ppm (Tetranychus urticae) | percent control (mortality or growth inhibition) at 200 ppm (Euschistus heros) | percent control (mortality or growth inhibition) at 200 ppm (Plutella xylostella) | mortality at 200 ppm (Myzus persicae) | mortality at 200 ppm (Spodoptera littoralis) | mortality at 200 ppm (Thrips tabaci)

Cc1cc(C2=NO[C@@](c3cc(F)cc(C(F)(F)F)c3)(C(F)(F)F)C2)ccc1C(=O)N[C@@H]1CON(S(C)(=O)=O)C1 [Compound A172]
≥ 80%: percent effect (mortality or growth inhibition) at 200 ppm (Diabrotica balteata) | mortality at 200 ppm (Tetranychus urticae; [1]) | percent effect (mortality or growth inhibition) at 200 ppm (Euschistus heros) | percent effect (mortality or growth inhibition) at 200 ppm (Plutella xylostella) | mortality at 200 ppm (Myzus persicae; [2]) | mortality at 200 ppm (Spodoptera littoralis; [3]) | mortality at 200 ppm (Thrips tabaci; [4])

CCN(C)S(=O)(=O)N1C[C@@H](NC(=O)c2ccc(C3=NO[C@@](c4cc(Cl)cc(Cl)c4)(C(F)(F)F)C3)cc2Cl)CO1 [Compound A129, 2-chloro-4-[(5S)-5-(3,5-dichlorophenyl)-5-(trifluoromethyl)-4H-isoxazol-3-yl]-N-[(4R)-2-[ethyl(methyl)sulfamoyl]isoxazolidin-4-yl]benzamide]
≥ 80%: percent effect (mortality or growth inhibition) at 200 ppm (Diabrotica balteata) | mortality at 200 ppm (Tetranychus urticae; [1]) | percent effect (mortality or growth inhibition) at 200 ppm (Euschistus heros) | percent effect (mortality or growth inhibition) at 200 ppm (Plutella xylostella) | mortality at 200 ppm (Myzus persicae; [2]) | mortality at 200 ppm (Spodoptera littoralis; [3]) | mortality at 200 ppm (Thrips tabaci; [4])

Cc1cc(C2=NO[C@@](c3cc(Cl)c(F)c(Cl)c3)(C(F)(F)F)C2)ccc1C(=O)NC1CON(S(=O)(=O)N(C)C(C)(C)C)C1 (stereo partly drawn) [Compound A100, N-[2-[tert-butyl(methyl)sulfamoyl]isoxazolidin-4-yl]-4-[(5S)-5-(3,5-dichloro-4-fluoro-phenyl)-5-(trifluoromethyl)-4H-isoxazol-3-yl]-2-methyl-benzamide]
≥ 80%: percent effect (mortality or growth inhibition) at 200 ppm (Diabrotica balteata) | mortality at 200 ppm (Tetranychus urticae; [1]) | percent effect (mortality or growth inhibition) at 200 ppm (Euschistus heros) | percent effect (mortality or growth inhibition) at 200 ppm (Plutella xylostella) | mortality at 200 ppm (Myzus persicae; [2]) | mortality at 200 ppm (Spodoptera littoralis; [3]) | mortality at 200 ppm (Thrips tabaci; [4])

Cc1cc(C2=NO[C@@](c3cc(Cl)cc(Cl)c3)(C(F)(F)F)C2)ccc1C(=O)N[C@H]1CON(S(=O)(=O)N(C)C2CC2)C1 [Compound A156]
≥ 80%: percent effect (mortality or growth inhibition) at 200 ppm (Diabrotica balteata) | mortality at 200 ppm (Tetranychus urticae; [1]) | percent effect (mortality or growth inhibition) at 200 ppm (Euschistus heros) | percent effect (mortality or growth inhibition) at 200 ppm (Plutella xylostella) | mortality at 200 ppm (Myzus persicae; [2]) | mortality at 200 ppm (Spodoptera littoralis; [3]) | mortality at 200 ppm (Thrips tabaci; [4])

CCCS(=O)(=O)N1CC(NC(=O)c2ccc(C3=NO[C@@](c4cc(Cl)c(F)c(Cl)c4)(C(F)(F)F)C3)cc2C)CO1 (stereo partly drawn) [Compound A3]
≥ 80%: percent effect (mortality or growth inhibition) at 200 ppm (Diabrotica balteata) | mortality at 200 ppm (Tetranychus urticae; [1]) | percent effect (mortality or growth inhibition) at 200 ppm (Euschistus heros) | percent effect (mortality or growth inhibition) at 200 ppm (Plutella xylostella) | mortality at 200 ppm (Myzus persicae; [2]) | mortality at 200 ppm (Spodoptera littoralis; [3]) | mortality at 200 ppm (Thrips tabaci; [4])
